Reference: ChEMBL document CHEMBL3870326, “Synthesis and structure activity relationships of glycine amide derivatives as novel Vascular Adhesion Protein-1 inhibitors” (Bioorg Med Chem, 2017)

Key:
[1] = in vitro; conditions: PAMPA, pH 6.5
[2] = Metabolic stability in liver microsomes (unknown origin); format: ADME
[3] = Solubility of the compound; format: physicochemical
[4] = Stability in Wistar rat blood assessed as parent compound remaining at 1 ug/ml after 1 hr by LC-MS/MS analysis; format: ADME, tissue-based; conditions: read-out: Stability
[5] = pampa, pH 6.5, 2 h, 50 µM
[6] = Half life in Wistar rat plasma at 1 mg/kg, iv by LC-MS/MS analysis; format: ADME, organism-based
[7] = Cmax in Wistar rat plasma at 1 mg/kg, po by LC-MS/MS analysis; format: ADME, organism-based; parameters: dose 1 mg/kg, route oral
[8] = Total clearance in Wistar rat plasma at 1 mg/kg, iv by LC-MS/MS analysis; format: ADME, organism-based
[9] = AUC (0 to 24 hrs) in Wistar rat plasma at 1 mg/kg, po by LC-MS/MS analysis; format: ADME, organism-based; parameters: dose 1 mg/kg, time < 24 hr, route oral
[10] = AUC (0 to 24 hrs) in Wistar rat plasma at 1 mg/kg, iv by LC-MS/MS analysis; format: ADME, organism-based; parameters: time < 24 hr, dose 1 mg/kg, route intravenous
[11] = Half life in Wistar rat plasma at 1 mg/kg, po by LC-MS/MS analysis; format: ADME, organism-based
[12] = Volume of distribution at steady state in Wistar rat plasma at 1 mg/kg, iv by LC-MS/MS analysis; format: ADME, organism-based; conditions: read-out: Vdss
[13] = Oral bioavailability in Wistar rat plasma at 1 mg/kg by LC-MS/MS analysis; format: ADME, organism-based

For `CCNC(=O)c1ccc(-c2cccc(CN(C)C(=O)CN)c2)cc1.Cl`, the Papp at 2 h, 50 µM [1] was less than 0.2 ×10⁻⁶ cm/s.
For `Cl.NCC(=O)NCc1cccc(-c2ccccc2)c1`, the Stability [2] was “Stable”, the solubility [3] was “Soluble” and the remaining at 1 h, 1 ug/ml [4] was 33%. For the same compound, the Peff [5] was “Permeable”.
With `CCN(CC)C(=O)c1ccc(-c2cccc(CN(C)C(=O)CN)c2)cc1.O=C(O)C(=O)O` the Papp at 2 h, 50 µM [1] was 3.8 ×10⁻⁶ cm/s.
Work on `CN(Cc1cccc(-c2ccc(N3CCOCC3)cc2)c1)C(=O)CN.O=C(O)C(=O)O` yielded a half-life [6] of 28.2 min, a Cmax [7] of 73.4 ng/mL and a clearance [8] of 134 mL/min/kg. For the same compound, the AUC(0-t) at 24 h [9] was 69.6 ng·h/mL, the AUC(0-t) at 24 h [10] was 127 ng·h/mL and the half-life [11] was 34.8 min. The Vd [12] was 6.06 L/kg, the bioavailability [13] was 54.9% and the Papp at 2 h, 50 µM [1] was 22.1 ×10⁻⁶ cm/s.
